Measured values from PubChem BioAssay (NCI).
Where “and” joins values, the source holds several entries; their conditions need not be identical. Equal entries are not always repeated.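 All cell lines were grown in 96-well plates and treated with compound for 48 hours. GI50 marks 50% less growth. TGI is the concentration that stops growth completely.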

Experiments:
Experiment in all cases: NCI tumour cell line growth inhibition, 48 h
[1] = test system: DMS 114 small cell lung
[2] = test system: HOP-18 NSCLC
[3] = test system: LXFL 529 NSCLC
[4] = test system: RXF-631 renal
[5] = test system: SNB-78 CNS
[6] = test system: XF 498 CNS
[7] = test system: DLD-1 colon
[8] = test system: KM20L2 colon
[9] = test system: MDA-N
[10] = test system: P388 leukemia
[11] = test system: P388/ADR leukemia

Work on `c1cc[c]([Sn]([S]c2cccc3cccnc23)([S]c2cccc3cccnc23)[c]2ccccc2)cc1` yielded a GI50 [1] of 0.164 µM, a TGI [1] of 0.374 µM and a GI50 [2] of 0.193 µM. The TGI [2] was 0.481 µM, the GI50 [3] was 0.0782 µM and the TGI [3] was 0.211 µM. It also gave a GI50 [4] of 0.159 µM, a TGI [4] of 0.324 µM and a GI50 [5] of 0.224 µM. For the same compound, the TGI [5] was 0.68 µM, the GI50 [6] was 0.155 µM and the TGI [6] was 0.407 µM.

`CN1CCN(CCNc2ccc(CO)c3sc4ccccc4c(=O)c23)CC1` gave a TGI [7] of 53.2 µM, a TGI [1] of 22.9 µM and a TGI [8] of 17.7 µM. For the same compound, the TGI [3] was 22.6 µM.

In the case of `O=C(O)c1cscc1Cc1cccs1`, the TGI [9] is reported as > 100 µM.

For `c1cc(-c2cn[nH]c2)cc(-c2cn[nH]c2)c1`, the TGI [7] was > 100 µM, the TGI [1] was > 100 µM and the TGI [8] was > 100 µM. For the same compound, the TGI [4] was > 100 µM and the TGI [5] was > 100 µM.

For `BrC1=CC=C2NCCCCCCN=C3C=CC(Br)=CC=C3NCCCCCCN=C2C=C1`, the TGI [7] was > 25.5 µM, the TGI [1] was > 25.5 µM and the TGI [8] was > 25.5 µM. For the same compound, the TGI [4] was > 25.5 µM and the TGI [5] was > 25.5 µM.

With `Cc1cc(C)c2c(SCc3ccc(Cl)cc3Cl)nc(N)nc2n1` the TGI [9] was > 100 µM.

For `COc1ccc(C(=O)C(C(=O)C(=O)Nc2nccs2)c2ccc(OC)cc2)cc1` (configuration not stated), the TGI [7] was > 100 µM, the TGI [1] was > 100 µM and the TGI [2] was > 100 µM. For the same compound, the TGI [8] was > 100 µM, the TGI [3] was > 100 µM and the TGI [5] was > 100 µM. For the same compound, the TGI [6] was > 100 µM.

With `CCCCN(CCCC)C(=O)C(=O)C(C)C(=O)CC` (configuration not stated) the TGI [7] was > 100 µM, the TGI [8] was > 100 µM and the TGI [3] was > 100 µM. The TGI [5] was > 100 µM and the TGI [6] was > 100 µM.

`CCOc1ccc2ccc3cccnc3c2n1` was tested, and the TGI [9] was > 100 µM.

`CC1CCP(=O)(c2ccccc2)CC1` (configuration not stated) was tested, and the TGI [7] was > 100 µM, the TGI [1] was > 100 µM and the TGI [8] was > 100 µM. For the same compound, the TGI [3] was > 100 µM, the TGI [4] was > 100 µM and the TGI [5] was > 100 µM. The TGI [6] was > 100 µM.

`CCc1c(O)c2c(c(O)c1C(C)=O)C(=O)c1c(cc(O)c(C(=O)O)c1C(=O)O)C2=O` was tested, and the TGI [9] was > 100 µM.

For `NC(Cc1ccnnc1)C(=O)O` (configuration not stated), the TGI [9] was > 100 µM.

In the case of `O=S(=O)(O)/C(=C\c1ccccc1)c1ccccc1` (tested in a mixture with another compound), the TGI [9] is reported as > 100 µM.

`COc1ccc(/C=C(/C)[N+](=O)[O-])cc1` was tested, and the TGI [9] was 5.25 µM.

In the case of `O=C1C(=O)c2ccccc2C(O)=C1CC=C(Cl)Cl`, the GI50 [7] is reported as 7.21 µM, the TGI [7] is reported as 178 µM and the GI50 [1] is reported as 14.5 µM. The TGI [1] was 51.7 µM and 70.5 µM, the TGI [2] was 148 µM and the GI50 [8] was 7.04 µM. The TGI [8] was 200 µM, the GI50 [9] was 6.74 µM and the TGI [9] was 34.9 µM and 172 µM. It also gave a TGI [10] of 54.9 µM, a TGI [11] of 49.9 µM and a GI50 [5] of 11.5 µM. The TGI [5] was 55.7 µM and 204 µM, the GI50 [6] was 12.8 µM and the TGI [6] was 49.2 µM and 131 µM.

For `C#C[C@H](CCCC)OC(=O)N[C@H](C)c1ccccc1`, the TGI [7] was > 100 µM, the TGI [1] was 81 µM and the TGI [2] was > 100 µM. The TGI [8] was > 100 µM, the TGI [3] was > 100 µM and the TGI [4] was > 100 µM. For the same compound, the TGI [5] was > 100 µM and the TGI [6] was > 100 µM.

For `Cc1cccc(C)c1NC(=O)CCC(=O)NC(N)=S`, the TGI [7] was > 100 µM, the TGI [2] was > 100 µM and the TGI [8] was > 100 µM. The TGI [3] was > 100 µM.

With `O=[N+]([O-])[O-].O=[N+]([O-])[O-].[Au].[Au].c1ccc([P-]c2ccccc2)cc1.c1ccc([P-]c2ccccc2)cc1` the GI50 [7] was 47 µM, the TGI [7] was > 100 µM and the GI50 [1] was 37.5 µM. The TGI [1] was > 100 µM, the GI50 [2] was 18.5 µM and the TGI [2] was 37.6 µM. The GI50 [8] was 36.4 µM, the TGI [8] was > 100 µM and the GI50 [3] was 14.2 µM. The TGI [3] was 32.7 µM, the GI50 [5] was 61 µM and the TGI [5] was > 100 µM.

In the case of `CC(C)(C)[Si](C)(C)OCC1C=CC(n2cnc3c(N)ncnc32)O1` (configuration not stated), the TGI [9] is reported as 85.9 µM.

For `C1=C(c2ccccc2)SC=C(c2ccccc2)S1`, the TGI [9] was 36.5 µM.

In the case of `COc1ccc(Cl)cc1NC(=O)c1cccc([N+](=O)[O-])c1O`, the TGI [7] is reported as > 100 µM, the TGI [2] is reported as 8.79 µM and the TGI [8] is reported as 89.9 µM. The TGI [3] was > 100 µM, the TGI [9] was > 100 µM and the TGI [5] was > 100 µM.

`O=C(O)/C(=C\c1ccccc1Cl)S(=O)(=O)c1ccccc1` was tested, and the TGI [7] was > 100 µM, the TGI [1] was > 100 µM and the TGI [2] was > 100 µM. The TGI [8] was > 100 µM, the TGI [3] was > 100 µM and the TGI [4] was > 100 µM. The TGI [5] was > 100 µM.

In the case of `CC(O)(CNS(=O)(=O)c1ccccc1)c1ccccc1` (configuration not stated), the TGI [9] is reported as > 100 µM.

`O=[N+]([O-])/C=C\c1c[nH]c2ccc(OCc3ccccc3)cc12` gave a TGI [9] of 5.56 µM.

With `N[C@@H]1CCCC[C@@H]1N.O=C([O-])CN(CP(=O)([O-])[O-])CP(=O)([O-])[O-].[Pt+2]` the GI50 [7] was > 100 µM, the TGI [7] was > 100 µM and the GI50 [2] was > 100 µM. The TGI [2] was > 100 µM, the GI50 [8] was > 100 µM and the TGI [8] was > 100 µM. The GI50 [3] was > 100 µM, the TGI [3] was > 100 µM and the GI50 [5] was > 100 µM. For the same compound, the TGI [5] was > 100 µM, the GI50 [6] was > 100 µM and the TGI [6] was > 100 µM.

With `COc1cc2c([C@@H](OC(=O)c3ccccc3)c3ccc4c(c3)OCO4)nccc2c(OC)c1OC` the TGI [7] was > 100 µM, the TGI [1] was 84.1 µM and the TGI [2] was > 100 µM. The TGI [8] was > 100 µM, the TGI [3] was > 100 µM and the TGI [4] was > 100 µM. The TGI [5] was > 100 µM and the TGI [6] was 90.9 µM.

With `COC(=O)/C(=C/c1ccc(OC)cc1)NC(=O)c1ccccc1` the TGI [7] was > 100 µM, the TGI [1] was > 100 µM and the TGI [8] was > 100 µM. For the same compound, the TGI [3] was > 100 µM.

With `Cc1[nH]nc2c1C(=O)C=C(N(CCO)c1ccccc1)C2=O` the TGI [7] was > 100 µM, the TGI [1] was > 100 µM and the TGI [2] was > 100 µM. For the same compound, the TGI [3] was > 100 µM and the TGI [5] was > 100 µM.

For `NCCP(=O)(O)O`, the TGI [9] was > 100 µM.

In the case of `COc1cc(NCC2COc3c(ccc(OC)c3OC)C2=O)c([N+](=O)[O-])cc1OC` (configuration not stated), the TGI [9] is reported as > 100 µM.

`Cc1ccc(NC(=O)C2C(=O)N(c3ccc(C)c(C)c3)C(=O)/C2=N\NC(N)=S)cc1C` (configuration not stated) was tested, and the TGI [7] was > 100 µM, the TGI [8] was > 100 µM and the TGI [3] was > 100 µM. For the same compound, the TGI [4] was > 100 µM, the TGI [5] was > 100 µM and the TGI [6] was > 100 µM.

In the case of `CCCCCC(O)(CCCCC)CCCCCCCCC1=C(O)c2[nH]c(=O)ccc2C(=O)C1=O`, the TGI [7] is reported as 19.7 µM, the TGI [1] is reported as 16.5 µM and the TGI [8] is reported as 27.9 µM. The TGI [3] was 15.7 µM, the TGI [4] was 23.8 µM and the TGI [5] was 57.8 µM. The TGI [6] was 16 µM.

`CC1(C)CC(=O)C(=[N+]=[N-])C(=O)C1` was tested, and the TGI [7] was > 100 µM, the TGI [1] was > 100 µM and the TGI [8] was > 100 µM. For the same compound, the TGI [3] was > 100 µM and the TGI [6] was > 100 µM.
